The source of these data is patent US12303491B2, “Econazole nitrate medical patch and methods of use thereof” (Temple University-Of The Commonwealth System of Higher …, priority 2017, dated 2025).

Values after ≈ are worked out from the molar mass of the structure shown. A value given as a limit tells only on which side of the number the result lay.

The subject of one series is Staphylococcus aureus. The conditions noted are these: cited from earlier work.
Series [1] concerns Staphylococcus epidermidis. The note with it: cited from earlier work.
A further series concerns Streptococcus pyogenes. The note with it: cited from earlier work.
The subject of a further series is Streptococcus bovis. The conditions noted are these: cited from earlier work.
A further series has as its system Streptococcus faecalis. The conditions noted are these: cited from earlier work.
A further series has as its system Streptococcus faecium. The note with it: cited from earlier work.
Series [2] concerns Corynebacterium diphtheria. The note with it: cited from earlier work.
The test system of a further series is Listeria monocytogenes. The note with it: cited from earlier work.
In a further series the test system is Bacillus subtilis. The note with it: cited from earlier work.
For series [3] the following is noted: cited from earlier work.
The next series concerns plasma protein. The note with it: cited from earlier work.
The nature of series [4]: Crystallization in patch films (visual observation). Format: physicochemical. As for the experimental part: The drug (EN) and the PEs, thiourea (TU) and propylene glycol (PG), were dissolved or uniformly dispersed in the pressure sensitive adhesive(s) (PSAs), and spread onto a release liner. The drug (EN) and the nail PE (TU) were weighed out in a glass bottle and dissolved in solvent (methanol) and vortexed for 1 min. Then PG was weighed and added as solubilizer for EN and plasticizer for the patch. The solution was vortexed with the methanol as solvent until a single phase was obtained. Afterwards, the hydrophobic plasticizers triethyl citrate and hydrophilic polymer polyvinylpyrrolidone were weighed and mixed with the solvents prior to addition of PG. Finally the polymer was weighed out into the glass bottle and vortexed for 5 min to form a homogenous mixture. The formulae for the patch include but are not limited to those in Table 3. The bottles were then placed on the bottle roller and mixed overnight at medium speed to complete the mixing and remove the air bubbles generated during vortexing the polymer. […]
The percentage of TU was maintained at a concentration off 1%. Three concentrations of EN (1% w/w, 2.5% w/w and 5% w/w) and three concentrations of PG (5% w/w, 10% w/w and 20% w/w) were evaluated. […] Then according to the EN and PG concentration determined from the DURO-TAK® 87-4098 films, fabricated patches using acrylate grades DURO-TAK® 87-2287, DURO-TAK® 87-4287 and DURO-TAK® 87-9301. […]

A short description of series [5]: Drug release rate from acrylate patch. It counts as physicochemical. As for the experimental part:
The percentage of TU was maintained at a concentration off 1%. Three concentrations of EN (1% w/w, 2.5% w/w and 5% w/w) and three concentrations of PG (5% w/w, 10% w/w and 20% w/w) were evaluated. The acrylate films were first fabricated with DURO-TAK® 87-4098. The total weight of the mixture was 5 g. Methanol was the only solvent used for dissolving the components in the acrylates films. The purpose of this was to screen out what concentration of EN and PG could be added into the polymer to form an acceptable patch. Then according to the EN and PG concentration determined from the DURO-TAK® 87-4098 films, fabricated patches using acrylate grades DURO-TAK® 87-2287, DURO-TAK® 87-4287 and DURO-TAK® 87-9301.
Drug release from hydrophobic polymers is slow. The adhesives polymer used are hydrophobic polymers. To increase polymer chain mobility, the addition of a hydrophobic plasticizer was considered. Triacetin (TAC) and triethyl citrate (TEC) were the selected plasticizers. The adhesive polymer acrylate had been selected as the best polymer system. TAC or TEC was added into the acrylate polymer at three different levels. These were, 5%, 10% and 20% (based on the 5 g matrix weight).

A short description of series [6]: In-vitro skin permeation, Franz diffusion cells. Format: in vitro ADME, human. The source says: The patch was studied for the transdermal permeation of EN using human cadaver skin and Franz diffusion cells (FIG. 2A). Three films each with an area of 4 cm^2 square patch were cut from patch film. The skin was cut into 1.5 cm by 1.5 cm pieces, and mount on the Franz diffusion cells with orifice diameter of 9 mm (FIG. 2B). The release liner was removed from the films and the matrix surface was placed in contact with the skin. The area of 0.64 cm^2 of the skin was in contact with the receiving medium. The receiver compartment was sampled at 1, 2, 4, 8, 12 and 24 hr by withdrawing 0.5 mL of the receiving medium and replacing with equal volume of pH 7.4 PBS. At the end of 24 hr, epidermis and dermis were heat separated and extracted for EN content.

The format of series [7] is in vitro ADME, human. As for the experimental part: The cadaver toenails were cut into 7 mm×7 mm (49 mm^2) pieces. The nail pieces were then hydrated at 100% RH overnight prior to start of experiment. The hydrated nail pieces were placed in the neoprene nail adapters (FIG. 2A) with orifice diameter of 5 mm. The receiver compartment was filled with pH 7.4 PBS (3 mL) containing 0.1% w/v gentamicin sulfate and the assembly was maintained at 32±1° C. throughout the duration of the experiment. Each sample was tested in triplicate. The patch in absence of thiourea was used as the control. The patches with diameter of 5 mm were cut. The release liner was removed and the drug matrix was placed in contact with the nail. The new patch was applied every 24 hrs for 14 days. Throughout the duration of the study, the Franz cells were dosed with a new patch daily. On the days 2, 4, 6, 8, 10, 12 and 14, 0.5 mL of the sample was withdrawn from the receiver compartment and replaced with equal volume of new receiving medium.

For series [8] the following is noted: cited from earlier work. The source holds these as a separate data set.
The next series relates to dermatomycoses. The note with it: topical, dermatological studies, treatment period 2 to 6 weeks; cited from earlier work.
For series [9] the following is noted: cited from earlier work. This is another data set of the same source.
Series [10] is described as follows: Drug saturation solubility study. The conditions noted are these: PVP 1% and 5% solution compared to phosphoric buffer pH 7.4 and pH 5 (P<0.05).
Series [11] can be described thus: Nail penetration study in PVP solution. The note with it: 1% and 5% PVP group compared to phosphoric buffer pH 7.4 and pH 5 groups.

In the case of `Clc1ccc(COC(Cn2ccnc2)c2ccc(Cl)cc2Cl)cc1` (stereo not shown) [econazole], the MIC with Staphylococcus aureus was 12.5 µg/mL (≈ 32.7 µM); in series [1], 12.5 µg/mL (≈ 32.7 µM); in the series with Streptococcus pyogenes, 12.5 µg/mL (≈ 32.7 µM); in the series on Streptococcus bovis, 6.25 µg/mL (≈ 16.4 µM); with Streptococcus faecalis, 25 µg/mL (≈ 65.5 µM); in the series on Streptococcus faecium, 25 µg/mL (≈ 65.5 µM). The MIC in [2] is 0.78 µg/mL (≈ 2.04 µM); with Listeria monocytogenes it was 1.56 µg/mL (≈ 4.09 µM); with Bacillus subtilis it was 12.5 µg/mL (≈ 32.7 µM). The “unchanged drug in urine” value in [3] (human, in vivo) is given as “No unchanged econazole is detected”. The “dose recovered in urine and feces” value in series [3] (vaginal cream, over 96 hours) is given as “less than 3%”. The plasma protein binding result in the series on plasma protein is reported as “greater than 98%”.

Regarding `Clc1ccc(COC(Cn2ccnc2)c2ccc(Cl)cc2Cl)cc1` (stereo not shown) [econazole nitrate, Econazole nitrate], the crystallization in patch result was “slight crystallization” in series [4] (acrylate PSA patch, drug load 5% w/w, no PG added) and “crystallization occurred” in series [4] (acrylate patch screening, EN concentration raised to 5% w/w). For the same molecule, the drug release rate in series [5] (acrylate patch in absence of PVP) came out at 22.347 μg/cm^2/hour; in series [5] (acrylate patch with 1% PVP), 26.713 μg/cm^2/hour; in [5] (acrylate patch with 5% PVP), 27.853 μg/cm^2/hour. In [6] (human cadaver skin, after 24 hours), the “drug amount in the receiver compartment” value is on record as “no drug amount appeared”. Besides, the “drug amount in the dermis” value in series [6] (patch with thiourea vs without, 24 hr) is on record as “no significant difference”. In addition, the “drug amount in the epidermis” value is recorded as 5.63 ug/cm^2 in series [6] (patch with thiourea, 24 hr) and 1.73 ug/cm^2 in series [6] (patch without thiourea, 24 hr). Further, the “drug amount in nail plate” value in [7] is given as “significantly increase”. The “Water Solubility” value in series [8] (at 19° C.) is less than 0.1 g/100 mL at 19 °C. For the same molecule, the log partition coefficient (Log P) in series [8] is 5.5. In addition, the pKa in [8] is on record as 6.77. Further, the patients cured result in the series on dermatomycoses was “about 90%”. For the same molecule, the “topically applied drug remaining on the skin surface” value in series [3] (as a cream, patients) is reported as “about 90%”. Also, in series [9], the aqueous solubility is recorded as 1.5 micrograms/ml. The saturation solubility entry in series [10] is listed as “significantly higher”. Besides, the “amount penetrated into the nail plate” value in series [11] is “significantly higher”.

Turning to `Cc1cc(C2CCCCC2)n(O)c(=O)c1` [CPO, ciclopirox], the aqueous solubility in series [9] was 1.4 mg/mL (≈ 6750 µM).

With `Clc1ccc(COC(Cn2ccnc2)c2ccc(Cl)cc2Cl)c(Cl)c1` (stereo not shown) [miconazole base, miconazole], the minimal inhibitory concentration (MIC) in the series on Staphylococcus aureus is 6.25 µg/mL (≈ 15 µM); in series [1], 6.25 µg/mL (≈ 15 µM); with Streptococcus pyogenes, 6.25 µg/mL (≈ 15 µM); in the series with Streptococcus bovis, 3.12 µg/mL (≈ 7.5 µM); in the series with Streptococcus faecalis it was 25 µg/mL (≈ 60.1 µM); with Streptococcus faecium it was 25 µg/mL (≈ 60.1 µM). Moreover, the minimal inhibitory concentration (MIC) in series [2] was 0.39 µg/mL (≈ 0.937 µM); in the series with Listeria monocytogenes, 1.56 µg/mL (≈ 3.75 µM); in the series with Bacillus subtilis, 3.12 µg/mL (≈ 7.5 µM).

As usually defined, the MIC is the lowest concentration found to suppress growth. The term Log P denotes a log measure of how a compound divides between an organic and an aqueous phase. The pKa is the negative logarithm of the acid dissociation constant.
